Laboratory results published in patent publication US20230357320A1, “HELICAL STAPLED PEPTIDES AND USES THEREOF” (FOG PHARMACEUTICALS, INC., priority 2020, published 2023).
Starred links: 1 amine or outer side, 2 acyl side, 3 side chain; linkers in the order of their positions; H or OH if unused. Positions of bridges follow the written chain, without caps; N, C: chain ends. Non-standard residues stand in square brackets, D forms with d. Residues, ends and D or L forms follow the SMILES beside them. X1 = O=C([C@]1(CC=[*:3])CCCN1[*:1])[*:2]; αAllylPro = C=CC[C@@]1(C(=O)O)CCCN1; S5 = C=CCCC[C@](C)(N)C(=O)O

Key:
[1] = CHI Log D measurement (chromatographic hydrophobicity index)
Method: Finally, to measure hydrophobicity, a CHI Log D measurement assay was employed. […] The retention time measurements were performed using reverse-phase HPLC and Q-Exactive mass spectrometer with Phenomenex Gemini C-18 column (3 uM, 50×3 mm). The reverse-phase chromatography was performed using a gradient of 10 mM ammonium acetate at pH=7.4 and acetonitrile solvents. Using the identical solvent setup, gradient, and flowrate, ProLock stapled peptides were injected onto the column to determine the tR of peptides. Using the calibration curve shown in FIG. 7, tR is converted into CHI. CHI was converted into CHI Log D using the following equation.

[2] = for % Retention: PAMPA
in vitro = test: in vitro; design: dose or concentration left out as unconfirmed; settings: PAMPA, pH 7.4, PAMPA Pe
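Throughout, for % Retention: Phospholipid-membrane PAMPA, donor and acceptor in DPBS pH 7.4 with 5% DMSO, 37 °C for 5 h, compound in each well quantified by reverse-phase HPLC-MS.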
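Throughout, for PAMPA Pe (text): Phospholipid-membrane PAMPA, donor and acceptor in DPBS pH 7.4 with 5% DMSO, 37 °C for 5 h, compound in each well quantified by reverse-phase HPLC-MS.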
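Throughout, for Papp: Phospholipid-membrane PAMPA, donor and acceptor in DPBS pH 7.4 with 5% DMSO, 37 °C for 5 h, compound in each well quantified by reverse-phase HPLC-MS.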

Row | Structure (SMILES) | chromatographic logD ([1]; pH 7.4) | % Retention [2] [%] | Papp at 5 h (in vitro) [×10⁻⁶ cm/s] | chromatographic logD ([1]; reverse-phase HPLC, Phenomenex Gemini C-18 column, pH 7.4) | CHI Log D compared to the parent ProLock stapled peptide ([1]; result in words) | logD ([1]; pH 7.4) | PAMPA Pe (text) [2] [×10⁻⁶ cm/s]
1 | CNC(=O)[C@H](CC(=O)O)NC(=O)[C@H](Cc1c[nH]cn1)NC(=O)[C@H](CC(C)C)NC(=O)[C@H](CC(C)C)NC(=O)[C@H](CCCNC(=N)N)NC(=O)[C@]1(C)CCCC=CCCC[C@](C)(NC(C)=O)C(=O)N[C@@H](C)C(=O)N[C@@H](CC(C)C)C(=O)N[C@@H](CC(C)C)C(=O)N1 [PLL7-9 variant 4, Ac-S5-Ala-Leu-Leu-S5-Arg-Leu-Leu-His-Asp-NHMe] (Ac-[S5]ALL[S5]RLLHD-NHMe; staple 1-5) | 2.7 | 101 ± 24 | ≤ 0.1 |  |  |  | 
2 | CNC(=O)[C@H](CC(N)=O)NC(=O)[C@H](CC(C)C)NC(=O)[C@H](CC(C)C)NC(=O)[C@H](Cc1c[nH]cn1)NC(=O)[C@]1(C)CCCC=CCCC[C@](C)(NC(C)=O)C(=O)N[C@@H](C)C(=O)N[C@@H](C)C(=O)N[C@@H](CC(C)C)C(=O)N1 [PLL7-20 variant 4, Ac-S5-Ala-Ala-Leu-S5-His-Leu-Leu-Asn-NHMe] (Ac-[S5]AAL[S5]HLLN-NHMe; staple 1-5) | 2.6 | 74 ± 6 | ≤ 0.1 |  |  |  | 
3 | CNC(=O)[C@H](CC(=O)O)NC(=O)[C@H](Cc1c[nH]cn1)NC(=O)[C@H](CC(C)C)NC(=O)[C@H](CC(C)C)NC(=O)[C@H](CCCNC(=N)N)NC(=O)[C@]1(C)CCCC=CC[C@]2(CCCN2)C(=O)N[C@@H](CC(C)C)C(=O)N[C@@H](CC(C)C)C(=O)N1 (single isomer, unassigned) [PLL7-9 variant 1, H-PL3-Leu-Leu-S5-Arg-Leu-Leu-His-Asp-NHMe] | 3.7 | 86 ± 2 | ≤ 0.1 |  | surprisingly high |  | 
4 | CCCC[C@@H]1NC(=O)[C@H](CC(C)C)NC(=O)[C@]2(CC=CCCC[C@@](C)(C(=O)N[C@@H](CC(C)C)C(=O)N[C@@H](CC(C)C)C(=O)N[C@@H](Cc3c[nH]cn3)C(=O)N[C@@H](Cc3ccc(O)cc3)C(=O)NC)NC1=O)CCCN2C(C)=O (single isomer, unassigned) [PLL4-9, Ac-PL3-Leu-Nle-S5-Leu-Leu-His-Tyr-NHMe] | 3.3 | 43 ± 3 | ≤ 0.1 |  |  |  | 
5 | CC(=O)N1CCC[C@]12CC=CCCC[C@@](C)(C(=O)N[C@@H](Cc1c[nH]cn1)C(=O)N[C@@H](CC(C)C)C(=O)N[C@@H](CC(C)C)C(=O)N[C@@H](CC(N)=O)C(N)=O)NC(=O)[C@H](CC(C)C)NC(=O)[C@H](C)NC2=O (single isomer, unassigned) [PLL7-20 variant 3, Ac-PL3-Ala-Leu-S5-His-Leu-Leu-Asn-NH2] | 2.1 | 76 ± 10 | 0.5 ± 0.2 |  |  |  | 
6 | CC(=O)N1CCC[C@]12CC=CCCC[C@@](C)(C(=O)N[C@@H](CC(N)=O)C(=O)N[C@@H](CC(C)C)C(=O)N[C@@H](CC(C)C)C(=O)N[C@H](C(=O)N[C@@H](Cc1ccc(O)cc1)C(N)=O)[C@@H](C)O)NC(=O)[C@H](CC(C)C)NC(=O)[C@H](CCCCN)NC2=O (single isomer, unassigned) [PLL4-5 variant 3, Ac-PL3-Lys-Leu-S5-Asn-Leu-Leu-Thr-Tyr-NH2] | 1.6 | 78 ± 8 | 0.4 ± 0.1 |  |  |  | 
7 | CC(=O)N1CCC[C@]12CC=CCCC[C@@](C)(C(=O)N[C@@H](CCCNC(=N)N)C(=O)N[C@@H](CC(C)C)C(=O)N[C@@H](CC(C)C)C(=O)N[C@@H](Cc1c[nH]cn1)C(=O)N[C@@H](CC(=O)O)C(N)=O)NC(=O)[C@H](CC(C)C)NC(=O)[C@H](CC(C)C)NC2=O (single isomer, unassigned) [PLL7-9 variant 3, Ac-PL3-Leu-Leu-S5-Arg-Leu-Leu-His-Asp-NH2] | 1.9 | 98 ± 10 | 0.5 ± 0.1 |  |  |  | 

Next, values leading:

Row | chromatographic logD ([1]; pH 7.4) | % Retention [2] [%] | Papp at 5 h (in vitro) [×10⁻⁶ cm/s] | chromatographic logD ([1]; reverse-phase HPLC, Phenomenex Gemini C-18 column, pH 7.4) | CHI Log D compared to the parent ProLock stapled peptide ([1]; result in words) | logD ([1]; pH 7.4) | PAMPA Pe (text) [2] [×10⁻⁶ cm/s] | Structure (SMILES)
8 | 4 | 48 ± 3 | ≤ 0.1 |  |  |  |  | CCCC[C@H](NC(=O)[C@H](CC(C)C)NC(=O)[C@]1(C)CCCC=CC[C@]2(CCCN2C(C)=O)C(=O)N[C@@H](C)C(=O)N[C@@H](CC(C)C)C(=O)N1)C(=O)N[C@@H](CC(C)C)C(=O)N[C@@H](C)C(=O)N[C@@H](Cc1ccc(O)cc1)C(=O)NC (single isomer, unassigned) [PLL4-6, Ac-PL3-Ala-Leu-S5-Leu-Nle-Leu-Ala-Tyr-NHMe]
9 |  | 36 ± 1 | ≤ 0.1 | 2.4 |  |  |  | CNC(=O)[C@H](Cc1ccc(O)cc1)NC(=O)[C@H](CC(=O)O)NC(=O)[C@H](CC(C)C)NC(=O)[C@H](CC(C)C)NC(=O)[C@H](Cc1ccc(O)cc1)NC(=O)[C@]1(C)CCCC=CC[C@]2(CCCN2C(C)=O)C(=O)N[C@@H](CC(C)C)C(=O)N[C@@H](CC(C)C)C(=O)N1 [PLL5-1, Ac-PL3-Leu-Leu-S5-Tyr-Leu-Leu-Asp-Tyr-NHMe] (Ac-[X1]LL[S5]YLLDY-NHMe; staple 1-4)
10 | 2.2 | 79 ± 3 | ≤ 0.1 |  |  |  |  | CNC(=O)[C@H](Cc1ccc(O)cc1)NC(=O)[C@@H](NC(=O)[C@H](CC(C)C)NC(=O)[C@H](CC(C)C)NC(=O)[C@H](CC(N)=O)NC(=O)[C@]1(C)CCCC=CCCC[C@](C)(NC(C)=O)C(=O)N[C@@H](C)C(=O)N[C@@H](CCCCN)C(=O)N[C@@H](CC(C)C)C(=O)N1)[C@@H](C)O [PLL4-5 variant 4, Ac-S5-Ala-Lys-Leu-S5-Asn-Leu-Leu-Thr-Tyr-NHMe] (Ac-[S5]AKL[S5]NLLTY-NHMe; staple 1-5)
11 | 2.6 | 64 ± 1 | ≤ 0.1 |  |  |  |  | CNC(=O)[C@H](CC(=O)O)NC(=O)[C@H](CCC(N)=O)NC(=O)[C@H](CC(C)C)NC(=O)[C@H](CC(C)C)NC(=O)[C@H](Cc1ccc(O)cc1)NC(=O)[C@]1(C)CCCC=CC[C@]2(CCCN2C(C)=O)C(=O)O[C@@H](CC(C)C)C(=O)N[C@@H](CC(C)C)C(=O)N1 (single isomer, unassigned) [PLL7-7 variant 2, Ac-PL3-Lec-Leu-S5-Tyr-Leu-Leu-Gln-Asp-NHMe]
12 | 2.9 | 74 ± 6 | ≤ 0.1 |  |  |  |  | CNC(=O)[C@H](CC(=O)O)NC(=O)[C@H](CC(C)C)NC(=O)[C@H](CC(C)C)NC(=O)[C@H](Cc1ccc(O)cc1)NC(=O)[C@]1(C)CCCC=CCCC[C@](C)(NC(C)=O)C(=O)N[C@@H](C)C(=O)N[C@@H](CC(C)C)C(=O)N[C@@H](CC(C)C)C(=O)N1 [PLL4-10 variant 4, Ac-S5-Ala-Leu-Leu-S5-Tyr-Leu-Leu-Asp-NHMe] (Ac-[S5]ALL[S5]YLLD-NHMe; staple 1-5)
13 |  | 47 ± 6 | ≤ 0.1 |  |  | 1.9 |  | CNC(=O)[C@H](CC(=O)O)NC(=O)[C@H](CC(=O)O)NC(=O)[C@H](CC(C)C)NC(=O)[C@H](CC(C)C)NC(=O)[C@H](Cc1ccc(O)cc1)NC(=O)[C@]1(C)CCCC=CC[C@]2(CCCN2C(C)=O)C(=O)O[C@@H](CC(C)C)C(=O)N[C@@H](CC(C)C)C(=O)N1 (single isomer, unassigned) [PLL5-2 variant 2, Ac-PL3-Lec-Leu-S5-Tyr-Leu-Leu-Asp-Asp-NHMe]
14 | 2.8 | 70 ± 2 | 0.2 ± 0.1 |  |  |  |  | C=CCCC[C@](C)(NC(=O)[C@H](CC(C)C)NC(=O)[C@H](CC(C)C)NC(=O)[C@]1(CC=C)CCCN1C(C)=O)C(=O)N[C@@H](Cc1ccc(O)cc1)C(=O)N[C@@H](CC(C)C)C(=O)N[C@@H](CC(C)C)C(=O)N[C@@H](CC(=O)O)C(=O)NC [PLL4-10 variant 5, Ac-PL3-Leu-Leu-S5-Tyr-Leu-Leu-Asp-NHMe] (Ac-[αAllylPro]LL[S5]YLLD-NHMe)
15 | 2.5 | 91 ± 2 | 0.5 ± 0.1 |  |  |  |  | C=CCCC[C@](C)(NC(=O)[C@H](CC(C)C)NC(=O)[C@H](CC(C)C)NC(=O)[C@]1(CC=C)CCCN1C(C)=O)C(=O)N[C@@H](CCCNC(=N)N)C(=O)N[C@@H](CC(C)C)C(=O)N[C@@H](CC(C)C)C(=O)N[C@@H](Cc1c[nH]cn1)C(=O)N[C@@H](CC(=O)O)C(=O)NC [PLL7-9 variant 5, Ac-PL3-Leu-Leu-S5-Arg-Leu-Leu-His-Asp-NHMe] (Ac-[αAllylPro]LL[S5]RLLHD-NHMe)
16 | 1.8 | 90 ± 3 | 1.7 ± 0.4 |  |  |  | 1.7 | C=CCCC[C@](C)(NC(=O)[C@H](CC(C)C)NC(=O)[C@H](CC(C)C)NC(=O)[C@]1(CC=C)CCCN1C(C)=O)C(=O)N[C@@H](Cc1ccc(O)cc1)C(=O)N[C@@H](CC(C)C)C(=O)N[C@@H](CC(C)C)C(=O)N[C@@H](CC(=O)O)C(=O)N[C@@H](CC(=O)O)C(=O)NC [PLL5-2 variant 5, Ac-PL3-Leu-Leu-S5-Tyr-Leu-Leu-Asp-Asp-NHMe] (Ac-[αAllylPro]LL[S5]YLLDD-NHMe)
17 | 2.7 | 88 ± 4 | 0.3 ± 0.1 |  |  |  |  | C=CCCC[C@](C)(NC(=O)[C@H](CC(C)C)NC(=O)[C@H](C)NC(=O)[C@]1(CC=C)CCCN1C(C)=O)C(=O)N[C@@H](Cc1c[nH]cn1)C(=O)N[C@@H](CC(C)C)C(=O)N[C@@H](CC(C)C)C(=O)N[C@@H](CC(N)=O)C(=O)NC [PLL7-20 variant 5, Ac-PL3-Ala-Leu-S5-His-Leu-Leu-Asn-NHMe] (Ac-[αAllylPro]AL[S5]HLLN-NHMe)
